Test results published in patent US20090176755A1, “PHARMACEUTICAL COMPOSITIONS COMPRISING AN ANTIBIOTIC” (priority 2005, published 2009).

Experiment: Exposure of form B crystals to high relative humidity or water (polymorphic transformation)
Format: physicochemical
Source text: Usually minutes of exposure to high humidity and seconds of exposure to water, such as within an suspension, are sufficient for this transformation. Such conditions are for example found during pharmaceutical production in countries with a humid climate.

Structure (SMILES): C=CC1=C(C(=O)O)N2C(=O)C(NC(=O)C(=NO)c3csc(N)n3)[C@H]2SC1 (stereo partly drawn) [crystalline form B of cefdinir, 7-[2-(2-aminothiazol-4-yl)-2-hydroxyiminoacetamido]-3-vinyl-3-cephem-4-carboxylic acid]
- exposure time sufficient for transformation into a different polymorphic form (exposure to high humidity): minutes
- exposure time sufficient for transformation into a different polymorphic form (exposure to water, such as within a suspension): seconds
- relative humidity at which form B transforms into a different polymorphic form with reduced stability (form B crystals exposed to humid conditions): higher than 65%
